Assay [1] relates to Plasmodium falciparum. The experiment in a line: Antiplasmodial activity against Plasmodium falciparum NF54 assessed as [3H]-hypoxanthine incorporation after 48 hrs by liquid scintillation counting analysis. Format: functional, organism-based.
Assay [2] deals with Plasmodium falciparum. The experiment in a line: Antiplasmodial activity against chloroquine-resistant Plasmodium falciparum Dd2 assessed as parasite growth inhibition after 48 hrs by light microscopic analysis. The note with it: Dd2, 48 h. Format: functional, organism-based.

pIC50: −log10 of the molar value. Where a SMILES comes first, the peptide text is derived from it. [ ]: non-standard residue; d: D form. Trp(1-OMe) = COn1cc(C[C@H](N)C(=O)O)c2ccccc21; Asu = N[C@@H](CCCCCC(=O)O)C(=O)O; dPip = O=C(O)[C@H]1CCCCN1

Turning to `COn1cc(C[C@@H]2NC(=O)[C@H](CCCCCC(=O)O)NC(=O)[C@H]3CCCCN3C(=O)[C@H](Cc3ccccc3)NC2=O)c2ccccc21` (cyclo([Asu][Trp(1-OMe)]F[dPip])), the negative-log IC50 (pIC50) (commonly −log10 of the IC50, conventionally taken in molar units) in the assay with Plasmodium falciparum [1] was 6.17.
With `CCC(=O)CCCCC[C@@H]1NC(=O)[C@H]2CCCCN2C(=O)[C@H]([C@@H](C)CC)NC(=O)[C@H](Cc2cn(OC)c3ccccc23)NC1=O` [APICIDIN], the pIC50 with Plasmodium falciparum [2] was 6.70.

For the origin of these results see ChEMBL document CHEMBL3085644, “Structure elucidation and antimalarial activity of apicidin F: an apicidin-like compound produced by Fusarium fujikuroi” (J Nat Prod, 2013).
